In patent US11708562B2, “Differentiation of human embryonic stem cells” (Janssen Biotech, Inc., priority 2006, dated 2023):

Tested on: H9P33, H9P44 and H9P48 cells
Assay: Microarray analysis of definitive endoderm on MEFs vs MATRIGEL +/- Wnt-3A (Table VI)
Settings: DE treatment in low serum
Experimental: Controls for each group included cells plated on […]-coated dishes and cultured in MEF-conditioned medium or cells plated on MEFs and cultured in ES medium. All groups contained three biological replicates and each biological replicate was repeated on two separate gene chips.
Sample preparation, hybridization, and image analysis were performed according to the Affymetrix Human Genome U133 Plus 2.0 Array. Following normalization and a log transformation, data analysis was performed using OmniViz® software (MA) and […] (VizXLabs, WA). Significant differences in gene expression between the samples were evaluated using analysis of variance and an F-test with adjusted P-value (Benjamini and Hochberg correction) of ≤0.05. Only genes with a present call in at least one group were included in the analysis.

Substance: Activin A: a member of the TGFβ superfamily; growth factor (R&D Systems) used to differentiate human embryonic stem cells
- mean normalized intensity (log format), Human (clone HSY3RR) neuropeptide Y receptor (NPYR) mRNA (on MATRIGEL): 1.775
- mean normalized intensity (log format), Human DNA sequence from clone RP1-181C24 on chromosome 6p11.1-12.2 (3 end of the BMP5 gene) (on MATRIGEL): −3.723
- mean normalized intensity (log format), Human Fritz mRNA, complete cds (on MATRIGEL): 0.4366
- mean normalized intensity (log format), Human dipeptidyl peptidase IV (CD26) mRNA (on MATRIGEL): −3.611
- mean normalized intensity (log format), Human glycophorin HeP2 mRNA, partial cds (on MATRIGEL): −0.8435
- mean normalized intensity (log format), Human link protein mRNA, complete cds (on MATRIGEL): −1.94
- mean normalized intensity (log format), Human mRNA for alpha-1 type II collagen (on MATRIGEL): −2.8736
- mean normalized intensity (log format), Human mRNA for apolipoprotein AI (apo AI) (on MATRIGEL): 0.2151
- mean normalized intensity (log format), Human prostatic secretory protein 57 mRNA (on MATRIGEL): −3.013
- mean normalized intensity (log format), KIAA0878 protein (on MATRIGEL): 1.1189
- mean normalized intensity (log format), KIAA1462 protein (on MATRIGEL): −3.846
- mean normalized intensity (log format), MCP-1 = monocyte chemotactic protein (on MATRIGEL): −2.276
- mean normalized intensity (log format), Rho GDP dissociation inhibitor (GDI) alpha (on MATRIGEL): −1.544
- mean normalized intensity (log format), WAS protein family, member 2 (on MATRIGEL): −2.187
- mean normalized intensity (log format), collagen, type IX, alpha 2 (on MATRIGEL): 1.27
- mean normalized intensity (log format), collagen, type VI, alpha 1 (on MATRIGEL): −1.418
- mean normalized intensity (log format), glycophorin B (includes Ss blood group) (on MATRIGEL): −2.852
- mean normalized intensity (log format), hepatocyte nuclear factor 4, alpha (on MATRIGEL): −4.266
- mean normalized intensity (log format), homeo box HB9 (on MATRIGEL): −1.656
- mean normalized intensity (log format), hypothetical protein FLJ21032 (on MATRIGEL): 0.3557
- mean normalized intensity (log format), hypothetical protein FLJ23091 (on MATRIGEL): 0.3234
- mean normalized intensity (log format), hypothetical protein FLJ23403 (on MATRIGEL): −1.456
- mean normalized intensity (log format), matrix metalloproteinase 14 (membrane-inserted) (on MATRIGEL): −2.057
- mean normalized intensity (log format), microfibrillar-associated protein 4 (on MATRIGEL): 0.06379
- mean normalized intensity (log format), myristoylated alanine-rich protein kinase C substrate (MARCKS, 80K-L) (on MATRIGEL): −0.7172
- mean normalized intensity (log format), neuropilin 1 (on MATRIGEL): −1.623
- mean normalized intensity (log format), noggin (on MATRIGEL): −1.636
- mean normalized intensity (log format), phorbolin-like protein MDS019 (on MATRIGEL): −1.118
- mean normalized intensity (log format), solute carrier family 16 (monocarboxylic acid transporters), member 3 (on MATRIGEL): −0.06641
- mean normalized intensity (log format), splicing factor, arginineserine-rich 5 (on MATRIGEL): 0.7481
- mean normalized intensity (log format), stanniocalcin 1 (on MATRIGEL): 2.411
- mean normalized intensity (log format), 6-phosphofructo-2-kinasefructose-2,6-biphosphatase 4 (on MEFS): 1.6
- mean normalized intensity (log format), Cluster Incl. AB028021: Homo sapiens HNF-3beta mRNA for hepatocyte nuclear factor-3 beta (on MEFS): 4.117
- mean normalized intensity (log format), ESTs, Highly similar to IHH_HUMAN INDIAN HEDGEHOG PROTEIN PRECURSOR (H. sapiens) (on MEFS): 0.5905
- mean normalized intensity (log format), ESTs, Moderately similar to JE0284 Mm-1 cell derived transplantability-associated protein 1b (H. sapiens) (on MEFS): 4.222
- mean normalized intensity (log format), ESTs, Weakly similar to FCE2 MOUSE LOW AFFINITY IMMUNOGLOBULIN EPSILON FC RECEPTOR (M. musculus) (on MEFS): 3.48
- mean normalized intensity (log format), ESTs, Weakly similar to the 331st table hypothetical protein KIAA0555 (H. sapiens) (on MEFS): 0.4436
- mean normalized intensity (log format), G protein-coupled receptor (on MEFS): 5.053
- mean normalized intensity (log format), G protein-coupled receptor 49 (on MEFS): 2.505
- mean normalized intensity (log format), Homo sapiens HNF-3beta mRNA for hepatocyte nuclear factor-3 beta (on MEFS): 2.825
- mean normalized intensity (log format), Homo sapiens KIAA0878 protein (KIAA0878), mRNA (on MEFS): 5.654
- mean normalized intensity (log format), Homo sapiens Kell blood group (KEL), mRNA (on MEFS): −0.3839
- mean normalized intensity (log format), Homo sapiens MLL septin-like fusion (MSF), mRNA (on MEFS): −1.5
- mean normalized intensity (log format), Homo sapiens Mix-like homeobox protein 1 (MILD1) mRNA (on MEFS): 0.922
- mean normalized intensity (log format), Homo sapiens Rho GTPase activating protein 6 (ARHGAP6), transcript variant 2, mRNA (on MEFS): −1.285
- mean normalized intensity (log format), Homo sapiens TBX3-iso protein (TBX3-iso), mRNA (on MEFS): 1.07
- mean normalized intensity (log format), Homo sapiens angiopoietin 2 (ANGPT2), mRNA (on MEFS): 0.5968
- mean normalized intensity (log format), Homo sapiens ankyrin-like with transmembrane domains 1 (ANKTM1), mRNA (on MEFS): 2.819
- mean normalized intensity (log format), Homo sapiens apolipoprotein A-I (APOA1), mRNA (on MEFS): 2.469
- mean normalized intensity (log format), Homo sapiens apolipoprotein A-II (APOA2), mRNA (on MEFS): 4.469
- mean normalized intensity (log format), Homo sapiens arylsulfatase E (chondrodysplasia punctata 1) (ARSE), mRNA (on MEFS): 3.184
- mean normalized intensity (log format), Homo sapiens atrophin-1 interacting protein 1; activin receptor interacting protein 1 (KIAA0705), mRNA (on MEFS): −1.32
- mean normalized intensity (log format), Homo sapiens beta-site APP cleaving enzyme (BACE) mRNA (on MEFS): 1.754
- mean normalized intensity (log format), Homo sapiens cDNA FLJ11550 fis, clone HEMBA1002970 (on MEFS): 4.216
- mean normalized intensity (log format), Homo sapiens cDNA FLJ12993 fis, clone NT2RP3000197 (on MEFS): 2.069
- mean normalized intensity (log format), Homo sapiens cDNA FLJ13221 fis, clone NT2RP4002075 (on MEFS): 1.31
- mean normalized intensity (log format), Homo sapiens cardiac ventricular troponin C mRNA (on MEFS): 1.4377
- mean normalized intensity (log format), Homo sapiens cartilage linking protein 1 (CRTL1), mRNA (on MEFS): −0.8052
- mean normalized intensity (log format), Homo sapiens cell adhesion molecule with homology to L1CAM (close homologue of L1) (CHL1), mRNA (on MEFS): −2.5002
- mean normalized intensity (log format), Homo sapiens chromosome 19, cosmid R31181 (on MEFS): 0.2239
- mean normalized intensity (log format), Homo sapiens clone 23736 mRNA sequence (on MEFS): 4.507
- mean normalized intensity (log format), Homo sapiens cryptic mRNA, complete cds (on MEFS): −0.6735
- mean normalized intensity (log format), Homo sapiens cystatin SA (CST2), mRNA (on MEFS): 2.1671
- mean normalized intensity (log format), Homo sapiens cystatin SN (CST1), mRNA (on MEFS): 4.64
- mean normalized intensity (log format), Homo sapiens cytidine deaminase (CDA), mRNA (on MEFS): −1.67
- mean normalized intensity (log format), Homo sapiens dual specificity phosphatase 4 (DUSP4), mRNA (on MEFS): 4.122
- mean normalized intensity (log format), Homo sapiens fibroblast growth factor 8 (androgen-induced) (FGF8), mRNA (on MEFS): 0.01583
- mean normalized intensity (log format), Homo sapiens fibroblast growth factor 17 (FGF17), mRNA (on MEFS): 2.4872
- mean normalized intensity (log format), Homo sapiens frizzled-related protein (FRZB), mRNA (on MEFS): 3.676
- mean normalized intensity (log format), Homo sapiens gastrin-releasing peptide (GRP), mRNA (on MEFS): 0.5098
- mean normalized intensity (log format), Homo sapiens glycophorin B (includes Ss blood group) (GYPB), mRNA (on MEFS): 0.1803
- mean normalized intensity (log format), Homo sapiens glycophorin E (GYPE), mRNA (on MEFS): −1.501
